Data from EPA's ToxValDB 9.5 (doi:10.2903/j.efsa.2008.126r).
Converted amounts (≈) assume the structure as drawn.

Key:
[1] = system: Anas platyrhynchos; conditions: for LD50: oral, mortality
[2] = system: Apis mellifera; conditions: acute; duration: 48 hours; dermal; mortality
[3] = system: Canidae; conditions: subchronic; duration: 90 days; oral; Dog Other; histopathology: nonneoplastic
[4] = system: Colinus virginianus; conditions: for LD50: acute, oral, mortality
[5] = system: Daphnia magna; conditions: chronic/long-term; duration: 21 days; reproduction
[6] = system: Pimephales promelas
[7] = system: Rattus norvegicus
[8] = system: Tagia sp.

In the case of `CC(C)Oc1cccc(NC(=O)c2ccccc2C(F)(F)F)c1` [Flutolanil], the LD50 ([1]; acute, unspecified) was > 2000 mg/kg-day, the NOEL ([1]; reproductive) was 267 mg/kg-day and the LD50 ([1]; short-term, feed) was 1250 mg/kg-day. For the same molecule, the LD50 [2] was > 200 µg/piece, the NOAEL [3] was 80 mg/kg-day and the LD50 ([4]; diet) was > 961 mg/kg-day. For the same molecule, the LD50 [4] was > 2000 mg/kg-day, the NOEL ([4]; reproduction developmental) was 247 mg/kg-day and the NOEC [5] was 0.53 mg/L. For the same molecule, the LC50 ([6]; acute, duration: 96 hours, mortality) was 4.8 µg/mL (≈ 14.8 µM), the NOEC ([6]; chronic/long-term, duration: 30 days, growth) was 0.233 mg/L and the LD50 ([7]; acute, oral, mortality) was > 10000 mg/kg-day. It also gave an NOAEL ([7]; chronic, duration: 2 years, F, hematological) of 8.7 mg/kg-day, an NOAEL ([7]; chronic, duration: 2 years, M, histopathology: nonneoplastic) of 8.7 mg/kg-day and an NOAEL ([7]; reproduction developmental, organ weight) of 157 mg/kg-day. The LC50 ([8]; acute, duration: 14 days, mortality) was > 1000 mg/kg and the NOEC ([8]; chronic/long-term, duration: 56 days) was 12.9 mg/kg.
